According to patent US20250235455A1, “AQUEOUS TICAGRELOR SOLUTIONS, METHOD OF MANUFACTURING AND USES” (HYLORIS DEVELOPMENTS SA, priority 2022, published 2025):
Like-named read-outs stand apart in the source and are kept apart here.

Key:
[1] = Solubility of ticagrelor in SBECD (appearance on shaking platform); type: physicochemical
Method: In a first example two different types of cyclodextrin were used and compared for the solubilization of ticagrelor. An unbuffered stock solution of HPβCD or SBECD was made in water at the target concentrations of 20 w/w %, 25 w/w %, 30 w/w %, 35 w/w % and 40 w/w %. Ticagrelor was added slowly under vortex. Ticagrelor was used at concentrations of 5, 10 or 14 mg/ml in milli Q water. The ticagrelor-cyclodextrin solutions were left on a shaking platform. No sonification or heat was applied.

[2] = pH and osmolality determination in undiluted batches; type: physicochemical; settings: 19 mM phosphate buffer pH 7.5
Excerpt: From the results obtained in Example 4 it follows that the concentration of excipients may be such that the resulting ticagrelor solution is hypertonic. The osmolality and pH of several batches was checked.

[3] = Impact of ticagrelor particle size on dissolution; type: physicochemical
Excerpt: Two different particle size diameters for the ticagrelor active ingredient were screened, 5.5 and 15 micrometers. The pH and osmolality were not affected.

[4] = Dilution of a concentrated ticagrelor vial; type: physicochemical
Excerpt: However, this was not possible with a 0.9 w/v % NaCl solution as diluent for the concentrated ticagrelor solution.

[5] = for Appearance, undiluted: 5 mg/ml; for Appearance in 5% dextrose / Appearance in NaCl 0.9%: diluted to 0.1 mg/ml
[6] = SBECD 20% w/w, ticagrelor 5 mg/ml
[7] = SBECD 20% w/w, ticagrelor 10 mg/ml
[8] = SBECD 20% w/w, ticagrelor 14 mg/ml
[9] = SBECD 25% w/w, ticagrelor 5 mg/ml
[10] = SBECD 25% w/w, ticagrelor 10 mg/ml
[11] = SBECD 25% w/w, ticagrelor 14 mg/ml
[12] = SBECD 30% w/w, ticagrelor 5 mg/ml
[13] = SBECD 30% w/w, ticagrelor 10 mg/ml
[14] = SBECD 30% w/w, ticagrelor 14 mg/ml
[15] = SBECD 35% w/w, ticagrelor 5 mg/ml
[16] = SBECD 35% w/w, ticagrelor 10 mg/ml
[17] = SBECD 35% w/w, ticagrelor 14 mg/ml
[18] = SBECD 40% w/w, ticagrelor 5 mg/ml
[19] = SBECD 40% w/w, ticagrelor 10 mg/ml
[20] = SBECD 40% w/w, ticagrelor 14 mg/ml

CCCSc1nc(N[C@@H]2C[C@H]2c2ccc(F)c(F)c2)c2nnn([C@@H]3C[C@H](OCCO)[C@@H](O)[C@H]3O)c2n1 [Ticagrelor, (1S,2S,3R,5S)-3-{7-[(1R,2S)-2-(3,4-difluorophenyl)cyclopropylamino]5-(propylthio)-3H-(1,2,3)triazolo (4,5-D)pyrimidin-3-yl}-5-(2 hydroxyethoxy)cyclopentane-1,2-diol]
Appearance After 5 min of shaking [1, 6]: − (translucent solution with precipitation) | Appearance After 30 min of shaking [1, 6]: − (translucent solution with precipitation) | Appearance After 60 min of shaking [1, 6]: − (translucent solution with precipitation) | Appearance After 3 h of shaking [1, 6]: − (translucent solution with precipitation) | Appearance After overnight shaking [1, 6]: − (translucent solution with precipitation) | Appearance After 5 min of shaking [1, 7]: − (translucent solution with precipitation) | Appearance After 30 min of shaking [1, 7]: − (translucent solution with precipitation) | Appearance After 60 min of shaking [1, 7]: − (translucent solution with precipitation) | Appearance After 3 h of shaking [1, 7]: − (translucent solution with precipitation) | Appearance After overnight shaking [1, 7]: − (translucent solution with precipitation) | Appearance After 5 min of shaking [1, 8]: − (translucent solution with precipitation) | Appearance After 30 min of shaking [1, 8]: − (translucent solution with precipitation) | Appearance After 60 min of shaking [1, 8]: − (translucent solution with precipitation) | Appearance After 3 h of shaking [1, 8]: − (translucent solution with precipitation) | Appearance After overnight shaking [1, 8]: − (translucent solution with precipitation) | Appearance After 5 min of shaking [1, 9]: − (translucent solution with precipitation) | Appearance After 30 min of shaking [1, 9]: − (translucent solution with precipitation) | Appearance After 60 min of shaking [1, 9]: − (translucent solution with precipitation) | Appearance After 3 h of shaking [1, 9]: − (translucent solution with precipitation) | Appearance After overnight shaking [1, 9]: − (translucent solution with precipitation) | Appearance After 5 min of shaking [1, 10]: − (translucent solution with precipitation) | Appearance After 30 min of shaking [1, 10]: − (translucent solution with precipitation) | Appearance After 60 min of shaking [1, 10]: − (translucent solution with precipitation) | Appearance After 3 h of shaking [1, 10]: − (translucent solution with precipitation) | Appearance After overnight shaking [1, 10]: − (translucent solution with precipitation) | Appearance After 5 min of shaking [1, 11]: − (translucent solution with precipitation) | Appearance After 30 min of shaking [1, 11]: − (translucent solution with precipitation) | Appearance After 60 min of shaking [1, 11]: − (translucent solution with precipitation) | Appearance After 3 h of shaking [1, 11]: − (translucent solution with precipitation) | Appearance After overnight shaking [1, 11]: − (translucent solution with precipitation) | Appearance After 5 min of shaking [1, 12]: − (translucent solution with precipitation) | Appearance After 30 min of shaking [1, 12]: − (translucent solution with precipitation) | Appearance After 60 min of shaking [1, 12]: − (translucent solution with precipitation) | Appearance After 3 h of shaking [1, 12]: − (translucent solution with precipitation) | Appearance After overnight shaking [1, 12]: − (translucent solution with precipitation) | Appearance After 5 min of shaking [1, 13]: − (translucent solution with precipitation) | Appearance After 30 min of shaking [1, 13]: − (translucent solution with precipitation) | Appearance After 60 min of shaking [1, 13]: − (translucent solution with precipitation) | Appearance After 3 h of shaking [1, 13]: − (translucent solution with precipitation) | Appearance After overnight shaking [1, 13]: − (translucent solution with precipitation) | Appearance After 5 min of shaking [1, 14]: − (translucent solution with precipitation) | Appearance After 30 min of shaking [1, 14]: − (translucent solution with precipitation) | Appearance After 60 min of shaking [1, 14]: − (translucent solution with precipitation) | Appearance After 3 h of shaking [1, 14]: − (translucent solution with precipitation) | Appearance After overnight shaking [1, 14]: − (translucent solution with precipitation) | Appearance After 5 min of shaking [1, 15]: − (translucent solution with precipitation) | Appearance After 30 min of shaking [1, 15]: +/− | Appearance After 60 min of shaking [1, 15]: +/− | Appearance After 3 h of shaking [1, 15]: +/− | Appearance After overnight shaking [1, 15]: − (translucent solution with precipitation) | Appearance After 5 min of shaking [1, 16]: − (translucent solution with precipitation) | Appearance After 30 min of shaking [1, 16]: − (translucent solution with precipitation) | Appearance After 60 min of shaking [1, 16]: − (translucent solution with precipitation) | Appearance After 3 h of shaking [1, 16]: − (translucent solution with precipitation) | Appearance After overnight shaking [1, 16]: − (translucent solution with precipitation) | Appearance After 5 min of shaking [1, 17]: − (translucent solution with precipitation) | Appearance After 30 min of shaking [1, 17]: − (translucent solution with precipitation) | Appearance After 60 min of shaking [1, 17]: − (translucent solution with precipitation) | Appearance After 3 h of shaking [1, 17]: − (translucent solution with precipitation) | Appearance After overnight shaking [1, 17]: − (translucent solution with precipitation) | Appearance After 5 min of shaking [1, 18]: − (translucent solution with precipitation) | Appearance After 30 min of shaking [1, 18]: +/− | Appearance After 60 min of shaking [1, 18]: +/− | Appearance After 3 h of shaking [1, 18]: +/− | Appearance After overnight shaking [1, 18]: + (clear, appeared completely dissolved) | Appearance After 5 min of shaking [1, 19]: − (translucent solution with precipitation) | Appearance After 30 min of shaking [1, 19]: − (translucent solution with precipitation) | Appearance After 60 min of shaking [1, 19]: − (translucent solution with precipitation) | Appearance After 3 h of shaking [1, 19]: − (translucent solution with precipitation) | Appearance After overnight shaking [1, 19]: − (translucent solution with precipitation) | Appearance After 5 min of shaking [1, 20]: − (translucent solution with precipitation) | Appearance After 30 min of shaking [1, 20]: − (translucent solution with precipitation) | Appearance After 60 min of shaking [1, 20]: − (translucent solution with precipitation) | Appearance After 3 h of shaking [1, 20]: − (translucent solution with precipitation) | Appearance After overnight shaking [1, 20]: − (translucent solution with precipitation) | Assay ([2]; HPβCD 22.5% w/w): 98.15% | Osmolality undiluted ([2]; HPβCD 22.5% w/w): 392 mOsm/kg | Total Impurities ([2]; HPβCD 22.5% w/w): 0.39% | pH undiluted ([2]; HPβCD 22.5% w/w): 7.67 | Assay ([2]; HPβCD 25.0% w/w): 103.23% | Osmolality undiluted ([2]; HPβCD 25.0% w/w): 493 mOsm/kg | Total Impurities ([2]; HPβCD 25.0% w/w): 0.41% | pH undiluted ([2]; HPβCD 25.0% w/w): 7.69 | Assay ([2]; HPβCD 27.5% w/w): 104.27% | Osmolality undiluted ([2]; HPβCD 27.5% w/w): 549 mOsm/kg | Total Impurities ([2]; HPβCD 27.5% w/w): 0.42% | pH undiluted ([2]; HPβCD 27.5% w/w): 7.69 | Assay ([2]; HPβCD 30.0% w/w): 107.64% | Osmolality undiluted ([2]; HPβCD 30.0% w/w): 638 mOsm/kg | Total Impurities ([2]; HPβCD 30.0% w/w): 0.44% | pH undiluted ([2]; HPβCD 30.0% w/w): 7.74 | Assay ([2]; HPβCD 32.5% w/w): 99.26% | Osmolality undiluted ([2]; HPβCD 32.5% w/w): 813 mOsm/kg | Total Impurities ([2]; HPβCD 32.5% w/w): 0.41% | pH undiluted ([2]; HPβCD 32.5% w/w): 7.68 | Dissolution time ([3]; D90 5.5 μm, micronized): 33 min | Osmolality ([3]; D90 5.5 μm, micronized): 751 mOsm/kg | pH ([3]; D90 5.5 μm, micronized): 7.68 | Dissolution time ([3]; D90 15 μm, unmicronized): 125 min | Osmolality ([3]; D90 15 μm, unmicronized): 753 mOsm/kg | pH ([3]; D90 15 μm, unmicronized): 7.70 | Clear solution on dilution ([4]; 0.9 w/v % NaCl solution as diluent): not possible | Appearance after dilution ([4]; 1 vial of 8 ml, 65 mg ticagrelor, about 3 g HPβCD, diluted with 25 ml 5 w/v % dextrose): clear solution | Appearance, undiluted ([5]; HPβCD 22.5% w/w): Turbid; clear after heating to 40 °C | Appearance, undiluted ([5]; HPβCD 25.0% w/w): Turbid; clear after heating to 40 °C | Appearance, undiluted ([5]; HPβCD 27.5% w/w): Turbid; clear after heating to 40 °C | Appearance, undiluted ([5]; HPβCD 30.0% w/w): Clear solution | Appearance, undiluted ([5]; HPβCD 32.5% w/w): Clear solution | Ticagrelor concentration possible to dissolve ([5]; HPβCD 20-40% w/w, without the use of heat): 5 to 15 mg/mL | Appearance in 5% dextrose ([5]; HPβCD 22.5% w/w): Clear solution | Appearance in NaCl 0.9% ([5]; HPβCD 22.5% w/w): Turbid | Appearance in 5% dextrose ([5]; HPβCD 25.0% w/w): Clear solution | Appearance in NaCl 0.9% ([5]; HPβCD 25.0% w/w): Turbid | Appearance in 5% dextrose ([5]; HPβCD 27.5% w/w): Clear solution | Appearance in NaCl 0.9% ([5]; HPβCD 27.5% w/w): Turbid | Appearance in 5% dextrose ([5]; HPβCD 30.0% w/w): Clear solution | Appearance in NaCl 0.9% ([5]; HPβCD 30.0% w/w): Turbid | Appearance in 5% dextrose ([5]; HPβCD 32.5% w/w): Clear solution | Appearance in NaCl 0.9% ([5]; HPβCD 32.5% w/w): Clear solution | Stability of undiluted concentrate in the refrigerator ([5]; HPβCD concentration as low as 22.5% w/w): remained stable | HPβCD required for a clear, storage stable ticagrelor solution ([5]; concentration relevant for injection or intravenous administration): At least 15 % w/w
